Experimental data taken from PubChem BioAssay (NCI).
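Cells were grown in 96-well plates and exposed to each compound for 48 hours at five concentrations; endpoints were interpolated linearly between bracketing concentrations, or set to the highest concentration if not reached. Here, GI50 denotes the concentration required for 50% inhibition of growth. TGI: concentration producing complete growth inhibition.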

Columns and labels:
Test in all cases: NCI anticancer screen, dose series, 48 h
[1] = test system: 786-0 renal
[2] = test system: A498 renal
[3] = test system: A549 NSCLC
[4] = test system: ACHN renal
[5] = test system: BT-549 breast
[6] = test system: CAKI-1 renal
[7] = test system: CCRF-CEM leukemia
[8] = test system: COLO 205 colon
[9] = test system: DU-145 prostate
[10] = test system: EKVX NSCLC
[11] = test system: HCC-2998 colon
[12] = test system: HCT-116 colon
[13] = test system: HCT-15 colon
[14] = test system: HL-60(TB) leukemia
[15] = test system: HOP-62 NSCLC
[16] = test system: HOP-92 NSCLC
[17] = test system: HS 578T breast
[18] = test system: HT29 colon
[19] = test system: IGROV1 ovarian
[20] = test system: K-562 leukemia
[21] = test system: KM12 colon
[22] = test system: LOX IMVI melanoma
[23] = test system: M14 melanoma
[24] = test system: MALME-3M melanoma
[25] = test system: MCF7 breast
[26] = test system: MDA-MB-231 breast
[27] = test system: MDA-MB-435
[28] = test system: MOLT-4 leukemia
[29] = test system: NCI-H226 lung
[30] = test system: NCI-H23 lung
[31] = test system: NCI-H460 lung
[32] = test system: NCI-H522 lung
[33] = test system: NCI/ADR-RES ovarian
[34] = test system: OVCAR-3 ovarian
[35] = test system: OVCAR-4 ovarian
[36] = test system: OVCAR-5 ovarian
[37] = test system: OVCAR-8 ovarian
[38] = test system: PC-3 prostate
[39] = test system: RPMI-8226 leukemia
[40] = test system: RXF 393 renal
[41] = test system: SF-268 CNS
[42] = test system: SF-295 CNS
[43] = test system: SF-539 CNS
[44] = test system: SK-MEL-2 melanoma
[45] = test system: SK-MEL-28 melanoma
[46] = test system: SK-MEL-5 melanoma
[47] = test system: SK-OV-3 ovarian
[48] = test system: SN12C renal
[49] = test system: SNB-19 CNS
[50] = test system: SNB-75 CNS
[51] = test system: SW-620 colon
[52] = test system: T-47D breast
[53] = test system: TK-10 renal
[54] = test system: U251 CNS
[55] = test system: UACC-257 melanoma
[56] = test system: UACC-62 melanoma
[57] = test system: UO-31 renal

Structure (SMILES): C[C@]12CC[C@H]3[C@@H](CC4SC(N)=NC45C/C(=N/NC(N)=O)CC[C@]35C)[C@@H]1CCC2=O (stereo not given in full)
- GI50 [1]: 1.39 µM
- TGI [1]: 2.82 µM
- GI50 [2]: 2.1 µM
- TGI [2]: 6.83 µM
- GI50 [3]: 2.02 µM
- TGI [3]: 3.89 µM
- GI50 [4]: 1.8 µM
- TGI [4]: 3.19 µM
- GI50 [5]: 2.84 µM
- TGI [5]: 8.91 µM
- GI50 [6]: 1.77 µM
- TGI [6]: 3.64 µM
- GI50 [7]: 0.28 µM
- TGI [7]: 1.62 µM
- GI50 [8]: 2.06 µM
- TGI [8]: 4.37 µM
- GI50 [9]: 1.75 µM
- TGI [9]: 3.41 µM
- GI50 [10]: 1.8 µM
- TGI [10]: 3.63 µM
- GI50 [11]: 1.74 µM
- TGI [11]: 3.28 µM
- GI50 [12]: 2.09 µM
- TGI [12]: 4.35 µM
- GI50 [13]: 1.46 µM
- TGI [13]: 2.86 µM
- GI50 [14]: 2.73 µM
- TGI [14]: 7.95 µM
- GI50 [15]: 1.84 µM
- TGI [15]: 3.47 µM
- GI50 [16]: 1.51 µM
- TGI [16]: 3.16 µM
- GI50 [17]: 2.08 µM
- TGI [17]: 5.15 µM
- GI50 [18]: 1.88 µM
- TGI [18]: 3.73 µM
- GI50 [19]: 1.78 µM
- TGI [19]: 3.43 µM
- GI50 [20]: 1.81 µM
- TGI [20]: 5.08 µM
- GI50 [21]: 2.01 µM
- TGI [21]: 4.02 µM
- GI50 [22]: 1.71 µM
- TGI [22]: 3.12 µM
- GI50 [23]: 1.94 µM
- TGI [23]: 3.77 µM
- GI50 [24]: 1.76 µM
- TGI [24]: 3.49 µM
- GI50 [25]: 1.52 µM
- TGI [25]: 3.14 µM
- GI50 [26]: 1.7 µM
- TGI [26]: 3.43 µM
- GI50 [27]: 1.33 µM
- TGI [27]: 2.7 µM
- GI50 [28]: 2.64 µM
- TGI [28]: 7.02 µM
- GI50 [29]: 2.09 µM
- TGI [29]: 4.91 µM
- GI50 [30]: 1.78 µM
- TGI [30]: 3.32 µM
- GI50 [31]: 1.92 µM
- TGI [31]: 3.61 µM
- GI50 [32]: 1.93 µM
- TGI [32]: 4.06 µM
- GI50 [33]: 1.94 µM
- TGI [33]: 3.87 µM
- GI50 [34]: 1.87 µM
- TGI [34]: 3.44 µM
- GI50 [35]: 1.74 µM
- TGI [35]: 3.17 µM
- GI50 [36]: 1.71 µM
- TGI [36]: 3.19 µM
- GI50 [37]: 1.85 µM
- TGI [37]: 3.63 µM
- GI50 [38]: 1.25 µM
- TGI [38]: 2.75 µM
- GI50 [39]: 0.3 µM
- TGI [39]: 1.37 µM
- GI50 [40]: 1.61 µM
- TGI [40]: 3.23 µM
- GI50 [41]: 1.78 µM
- TGI [41]: 4.11 µM
- GI50 [42]: 1.61 µM
- TGI [42]: 3.03 µM
- GI50 [43]: 2.05 µM
- TGI [43]: 5.23 µM
- GI50 [44]: 1.98 µM
- TGI [44]: 4.58 µM
- GI50 [45]: 1.63 µM
- TGI [45]: 3.1 µM
- GI50 [46]: 1.57 µM
- TGI [46]: 2.97 µM
- GI50 [47]: 6.21 µM
- TGI [47]: 22.3 µM
- GI50 [48]: 1.89 µM
- TGI [48]: 3.45 µM
- GI50 [49]: 1.87 µM
- TGI [49]: 3.62 µM
- GI50 [50]: 1.58 µM
- TGI [50]: 3.5 µM
- GI50 [51]: 1.69 µM
- TGI [51]: 3.39 µM
- GI50 [52]: 1.86 µM
- TGI [52]: 3.8 µM
- GI50 [53]: 2.29 µM
- TGI [53]: 5.45 µM
- GI50 [54]: 1.77 µM
- TGI [54]: 3.22 µM
- GI50 [55]: 2.4 µM
- TGI [55]: 5.83 µM
- GI50 [56]: 1.63 µM
- TGI [56]: 3.13 µM
- GI50 [57]: 1.52 µM
- TGI [57]: 2.88 µM

Structure (SMILES): O=C1C=Cc2c1ccc1ccccc21
- GI50 [1]: 21.3 µM
- TGI [1]: 65.2 µM
- GI50 [3]: 18.3 µM
- TGI [3]: 65.8 µM
- GI50 [4]: 17.1 µM
- TGI [4]: 58.7 µM
- GI50 [5]: 31.4 µM
- TGI [5]: 89.9 µM
- GI50 [6]: 11.1 µM
- TGI [6]: 33 µM
- GI50 [7]: 14.8 µM
- TGI [7]: 43.9 µM
- GI50 [8]: 30.9 µM
- TGI [8]: > 100 µM
- GI50 [9]: 48.8 µM
- TGI [9]: > 100 µM
- GI50 [10]: 12.6 µM
- TGI [10]: 61.3 µM
- GI50 [12]: 27 µM
- TGI [12]: > 100 µM
- GI50 [13]: 24.1 µM
- TGI [13]: > 100 µM
- GI50 [15]: 14.3 µM
- TGI [15]: 50 µM
- GI50 [17]: 18.4 µM
- TGI [17]: 54.6 µM
- GI50 [18]: 58.8 µM
- TGI [18]: > 100 µM
- GI50 [19]: 25.5 µM
- TGI [19]: > 100 µM
- GI50 [20]: 28.7 µM
- TGI [20]: > 100 µM
- GI50 [21]: 24.5 µM
- TGI [21]: 77.5 µM
- GI50 [22]: 22 µM
- TGI [22]: 61.8 µM
- GI50 [23]: 18.9 µM
- TGI [23]: 60.3 µM
- GI50 [25]: 18.6 µM
- TGI [25]: > 100 µM
- GI50 [26]: 15 µM
- TGI [26]: 53.6 µM
- GI50 [27]: 14.9 µM
- TGI [27]: 42.9 µM
- GI50 [29]: 16.6 µM
- TGI [29]: > 100 µM
- GI50 [30]: 27.4 µM
- TGI [30]: 85.2 µM
- GI50 [31]: 35.7 µM
- TGI [31]: > 100 µM
- GI50 [32]: 27.6 µM
- TGI [32]: > 100 µM
- GI50 [33]: 31.9 µM
- TGI [33]: > 100 µM
- GI50 [35]: 75.2 µM
- TGI [35]: > 100 µM
- GI50 [36]: 16.1 µM
- TGI [36]: 67.4 µM
- GI50 [37]: 25.3 µM
- TGI [37]: 73.6 µM
- GI50 [38]: 13 µM
- TGI [38]: 85.2 µM
- GI50 [39]: 4.2 µM
- TGI [39]: 21.9 µM
- GI50 [41]: 28.3 µM
- TGI [41]: > 100 µM
- GI50 [42]: 20.8 µM
- TGI [42]: 63.6 µM
- GI50 [44]: 72.9 µM
- TGI [44]: > 100 µM
- GI50 [45]: 80.4 µM
- TGI [45]: > 100 µM
- GI50 [46]: 21.1 µM
- TGI [46]: 71 µM
- GI50 [47]: 30.2 µM
- TGI [47]: > 100 µM
- GI50 [48]: 6.55 µM
- TGI [48]: 35.7 µM
- GI50 [49]: 33 µM
- TGI [49]: > 100 µM
- GI50 [50]: 35.4 µM
- TGI [50]: > 100 µM
- GI50 [51]: 44.3 µM
- TGI [51]: > 100 µM
- GI50 [52]: 37.9 µM
- TGI [52]: > 100 µM
- GI50 [53]: 15.9 µM
- TGI [53]: 54.9 µM
- GI50 [54]: 24.5 µM
- TGI [54]: > 100 µM
- GI50 [55]: 50.2 µM
- TGI [55]: > 100 µM
- GI50 [56]: 9.66 µM
- TGI [56]: 70.9 µM
- GI50 [57]: 26.7 µM
- TGI [57]: > 100 µM
